Source: patent US20060167276A1, “Clausenamide c5-hydroxyl derivatives and n-substituted derivatives, processes for their preparation, its composition and use” (priority 2002, published 2006)

What was measured:
[1] = several behavioral studies; cited from earlier work
[2] = in vivo and in vitro; cited from earlier work
rat hippocampus = experiment: LTP / synaptic transmission in rat hippocampus (population spike amplitude, dentate gyrus); assay type: in vivo; settings: lateral ventricle, prior administration = 100
Description: Male adult SD Rats (5 per group) were anesthetized with 20% (w/v) urethane carbamate (1.0 g·kg^−1, ip) and fixed in a stereotaxic head holder. According to the reference of Pellegrino stereotaxic spectrum of rat, recording electrodes (stainless steel needle of 0.2 mm diameter were insulted except for 0.2 mm tip) were placed in the dentate gyrus granule cell layer. The stimulating electrodes (two stainless steel needles of 0.15 mm diameter coated with Teflon except for the 0.2 mm tip, and the distance between two needles was 0.5 mm) were planted between the fibre of perforant path (PP) in rat. Continuous pulse was provided by electronic stimulator, and delivered to PP through stimulus isolator and stimulating electrodes. Electrode depth was then adjusted until a typical excitatory postsynaptic potential (EPSP) was observed. Electric current was magnified by amplifier and collected by computer, then processed by DataWave software. The stimulus intensity was adjusted to produce population spike (PS) with a slope that was ≈50% of the maximum. Single-pulse test stimuli were at an interval of 30 sec during the experiment. Population spike amplitude (PSA) was recorded and the relatively percent of PSA was calculated according to the formula (PSA/basic value).

[3] = system: C17-2 mouse brain neural stem cells; experiment: Cell proliferation of mouse brain neural stem cells (MTT, OD 490 nm); assay type: cell-based; settings: for Result (OD value): MTT at 4th day, OD 490 nm; for Cell proliferation %: control group = 100%
Protocol: C17-2 mouse brain neural stem cells (C17-2 cells) were continuously cultured in 1640 medium with 10% horse serum and 10% fetal bovine serum at 5% CO2 and 37° C., dissociated to single cell suspension by 0.1% trypsin solution, centrifuged at 1,000 rpm×5 min and rinsed with medium. The cells were seeded in a 96-well plate, 1×10^3 cells per well, 3 well per group, continuously cultured. After 24 hours, the test compounds were added, doses of each of the C5-hydroxyl substituted clausenamides and N-substituted clausenamide derivatives were 0.1 μM, 1 μM and 10 μM respectively. The growth situation of the cells was observed under a microscope, once daily. At the 4th day, media in each well were pipetted, phosphate buffer solution containing MTT was added. 4 Hours later, the fluid was discarded, and a DMSO solution was added. The cells were incubated at 37° C. for 10 min under shaken. OD values on 490 nm of each well were detected. Set the growth rate of the control group as 100%, and the growth rates of each dose were given by comparison with the control group and t-tested.

CN1C(=O)C(O)C(c2ccccc2)C1C(O)c1ccccc1 (racemic) [clausenamide]
nootropic effect [1]: Significant nootropic effect

O=C1C(O)C(c2ccccc2)C(C(O)c2ccccc2)N1CO (single isomer, unassigned; (-)) [(−)CM1, (−) N-hydroxymethyl norclausenamide]
content in the metabolites of (−) clausenamide compared with the corresponding (+) isomers in the metabolites of (+) clausenamide [2]: significantly higher

CN1C(=O)C(O)C(c2ccccc2)C1(O)C(O)c1ccccc1 (single isomer, unassigned; (-)) [(−)CM2, (−) 5-hydroxyclausenamide]
content in the metabolites of (−) clausenamide compared with the corresponding (+) isomers in the metabolites of (+) clausenamide [2]: significantly higher

CN1C(=O)[C@@H](O)[C@H](c2ccccc2)[C@]1(O)[C@@H](O)c1ccccc1 [(−)II3, (−)-(3S,4S,5S,6S)-5-hydroxy-clausenamide]
Relative PS (PSA %) (rat hippocampus; 15 min after administration): 92.83 ± 17.54%
Relative PS (PSA %) (rat hippocampus; 30 min after administration): 87.11 ± 30.54%
Relative PS (PSA %) (rat hippocampus; 45 min after administration): 97.34 ± 25.71%
Relative PS (PSA %) (rat hippocampus; 60 min after administration): 98.30 ± 28.59%
Result (OD value) ([3]; dose 10^−5 M): 0.088 ± 0.006
Cell proliferation % ([3]; dose 10^−5 M): 64.23%
Result (OD value) ([3]; dose 10^−6 M): 0.187 ± 0.020
Cell proliferation % ([3]; dose 10^−6 M): 136.50%
Result (OD value) ([3]; dose 10^−7 M): 0.168 ± 0.076
Cell proliferation % ([3]; dose 10^−7 M): 122.63%
